# Source: PMC5317004 (Scientific Reports, 2017)
# System: T1, homomeric GluClβR
# T1 construct: homomeric receptors assembled from the full-length C. elegans GluClβ subunit; expressed in transfected cells; host or cells: CHO-K1 cells, transient transfection, pcDNA3.1
# Assay: Effect of IVM on Glu-elicited currents of homomeric GluClβ receptors in CHO cells (whole-cell patch clamp)
# Assay type: cell-based, C. elegans
# Conditions: pre-application of 2 μM IVM for 10 seconds, 100 mM Glu, +60 mV, four cells
# Protocol: Figure 9 Effect of IVM on homomeric GluClβ receptors. (A) Representative current traces obtained by the indicated application protocol. Glu (100 mM) was applied for either 350 ms to obtain peak IP0 at −60 mV, or 600 ms to obtain peaks IP1, IP2 and IP3 at +60 mV. Note that the responses at both membrane voltages, −60 and +60 mV, start to desensitize appreciably before the end of Glu application. IVM (2 μM) was applied for 10 seconds. Asterisk indicates a 25-sec-long wash between the second and third Glu applications. (B) Current-voltage (I/V) relations obtained in a different cell than in A upon the application of Glu (100 mM) over a voltage ramp lasting 200 ms. […] Current ratios were extracted from experiments performed as shown in (A). Mean ± SEM of four cells are presented. Paired, two-tailed Student’s t-tests indicate that **0.001 < P < 0.01 and ***P < 0.0002.
# Supplementary Information
# Trapping of ivermectin by a pentameric ligand-gated ion channel upon open-to-cl ose d i someri zati on N. Degani-Katzav, M. Klein, M. Har-Even, R. Gortler, R. Tobi and Y. Paas*
# Supplementary Materials and Methods […]
# The electrode resistance was 6-10 MΩ when filled with the pipette solution. […] The currents w ere measured with an Axopatch 200B patch-clamp amplifier (Molecular Devices, Sunnyvale, CA) and a Digidata 1440A interface (Molecular Devices). […]
smiles,measurement,value
"CC[C@H](C)[C@H]1O[C@]2(CC[C@@H]1C)C[C@@H]1C[C@@H](C/C=C(\C)[C@@H](O[C@H]3C[C@H](OC)[C@@H](O[C@H]4C[C@H](OC)[C@@H](O)[C@H](C)O4)[C@H](C)O3)[C@@H](C)/C=C/C=C3\CO[C@@H]4[C@H](O)C(C)=C[C@@H](C(=O)O1)[C@]34O)O2 [IVM, Ivermectin]",Glu response remaining after IVM pre-application (IP2/IP1 ratio),~67%
